Test results published in ChEMBL document CHEMBL5331078, “1-Benzyloxy-5-phenyltetrazole derivatives highly active against androgen receptor-dependent prostate cancer cells” (Eur J Med Chem, 2023).
Calls of active or inactive are those of the source. The rule behind the calls is not given here.

Experiments:
PC-3 = experiment: Antiproliferative activity against human PC-3 cells measured after 3 days by celltiter-glo luminescence assay; format: functional, cell-based; details: PC-3, 72 h
[1] = C0 in rat at 5 mg/kg, iv measured upto 24 hrs by LC-MS/MS analysis; format: ADME, organism-based; details: in vivo
[2] = Half life in rat at 5 mg/kg, iv measured upto 24 hrs by LC-MS/MS analysis; format: ADME, organism-based; details: in vivo
[3] = MRT (0 to infinity) in rat at 5 mg/kg, iv measured upto 24 hrs by LC-MS/MS analysis; format: ADME, organism-based; details: in vivo
[4] = Clearance in rat at 5 mg/kg, iv measured upto 24 hrs by LC-MS/MS analysis; format: ADME, organism-based; details: in vivo
CWR22R [5] = experiment: Antitumor activity against human 22Rv1 cells xenografted in NOD-SCID mouse assessed as inhibition of tumor growth at 10 mg/kg/day, ip measured upto 20 days; format: functional, organism-based; details: time <= 20.0 day
[6] = Toxicity in NOD-SCID mouse assessed as effect on body weight loss at 10 mg/kg/day, ip measured upto 20 days; format: organism-based; details: in vivo, 480 h, time < 20 day
[7] = Kinetic solubility of the compound in phosphate buffer at pH 6.5 after 30 mins by nephelometry; format: physicochemical; details: read-out: Kinetic_solubility
CWR22R [8] = experiment: Downregulation of androgen receptor in human 22Rv1 cells at 0.5 to 10 uM by Western blot analysis; format: functional, cell-based; details: dose 0.5-10 µM, time 24-36 hrs, TDE = time-dependent effect
CWR22R [9] = experiment: Downregulation of AR-v7 level in human 22Rv1 cells at 0.5 to 10 uM measured after 36 hrs by Western blot analysis; format: functional, cell-based; details: dose 0.5-10 µM
CWR22R [10] = experiment: Downregulation of AR genes expression in human 22Rv1 cells at 1 uM measured after 24 to 36 hrs by RNA sequencing analysis; format: functional, cell-based; details: time 24-36 hrs
CWR22R [11] = experiment: Downregulation of GRB10 gene expression in human 22Rv1 cells at 1 uM measured after 24 to 36 hrs by RNA sequencing analysis; format: functional, cell-based; details: time 24-36 hrs
CWR22R [12] = experiment: Downregulation of SKP2 gene expression in human 22Rv1 cells at 1 uM measured after 24 to 36 hrs by RNA sequencing analysis; format: functional, cell-based; details: time 24-36 hrs
CWR22R [13] = experiment: Downregulation of CHEK1 gene expression in human 22Rv1 cells at 1 uM measured after 24 to 36 hrs by RNA sequencing analysis; format: functional, cell-based; details: time 24-36 hrs

Clc1ccc(COn2nnnc2-c2ccc(Cl)cc2)cc1
IC50 (PC-3): > 100 µM | C0 at 24 h [1]: 5480 ng/mL | half-life [2]: 55.1 min | MRT inf [3]: 20.2 min | clearance [4]: 75.9 mL/min/kg | Activity (CWR22R [5]): Active | Activity [6]: Non-Toxic | solubility kinetic at 0.5 h [7]: < 1.6 µg/mL | Activity (CWR22R [8]): Tde | Activity (CWR22R [9]): Active | Activity (CWR22R [10]): Active | Activity (CWR22R [11]): Active | Activity (CWR22R [12]): Active | Activity (CWR22R [13]): Active
